Measurements: paper PMC10151334, “Anti-proliferative potential and oxidative reactivity of thermo-oxidative degradation products of stigmasterol and stigmasteryl esters for human intestinal cells” (Scientific Reports, 2023)
Read-outs that look alike come from different tables or passages of the source.

Tests used:
[1] = system: CCD 841 CoN cells; assay: DNA damage detection, comet assay (SCGE); format: cell-based, human; conditions: reference oxidant, 100 μM, 30 min
Description: The cells were grown at 6-well plates at the established density and standard culture conditions and exposed to the non-heated and heated ST, ST-OA, and ST-LA for 48 h. The non-treated cells and cells treated with H2O2 (100 μM, 30 min) to induce oxidative DNA damage constituted the negative and positive controls, respectively. After treatment, cells were analyzed for DNA damage using a single cell gel electrophoresis (SCGE) called comet assay, described in detail previously. Briefly, harvested cells suspended in low melting point agarose were put onto microscope slides pre-coated with normal melting point agarose and subjected sequentially to lysis, alkaline electrophoresis (pH > 13), and neutralization ([…]). The cells were stained with SYBRGold (Molecular Probes), viewed under a fluorescence microscope (Axiovert 200, Zeiss, Carl Zeiss, Gottingen, Germany), and analyzed using CometScore™ software (TriTek Corp., Sumerduck, VA, USA). At least 100 cells were analyzed on a microscope slide; 300 cells were considered for DNA damage detection in one sample. Data were expressed as the mean percentage of DNA content in the comet tail. […] Based on the comets' categorization, the total comet score (TCS) was calculated according to the formula: TCS = 0(n) + 1(n) + 2(n) + 3(n) + 4(n), where “n” is the number of cells in each comet class (0–4)[45].

[2] = system: THLE-2 cells; parameters: method as in PMID 31883991; conditions: normal human liver cells; cited from earlier work
[3] = system: caspase 3/7 activity in CCD 841 CoN cells; assay: Caspase 3/7 activity assay (APO-One Homogeneous); format: cell-based, human; conditions: 40 μg/mL, 24 h
Description: CCD 841 CoN cells were grown in black 96-well plates at an initial cell density of 2 × 10^4 cells/cm^2 for 24 h under standard culture conditions. The cell cultures were treated for 24 h with ST, ST-OA, and ST-LA at a 40 μg/mL dose. After treatment, caspase-3/7 activity was determined using the APO-One Homogeneous Caspase-3/7 Assay (Promega Corporation, Wisconsin, USA), which is based on the proteolytic cleavage of C-terminal side of aspartate residue in the DEVD peptide substrate by caspase 3/7 into fluorescent rhodamine 110 (R110). Analysis of caspase 3/7 activity was carried out following the manufacturer's instructions. Briefly, the cells after the treatment were incubated at room temperature with Apo-ONE® Caspase-3/7 Reagent—bifunctional cell lysis/caspase activity buffer combined with the pro-fluorescent caspase-3/7 substrate Z-DEVD-R110. After 4-h incubation, fluorescence was measured at an excitation wavelength of 485 nm and an emission wavelength of 530 nm using a Tecan M200 Infinite microplate reader. Data obtained were normalized to cellular protein content, quantified by BCA assay (Pierce® BCA Protein Assay Kit, Thermo Scientific Inc., USA) according to the manufacturer's protocol.

[4] = system: CCD 841 CoN cells; assay: DNA synthesis, BrdU incorporation (Cell Proliferation ELISA); format: cell-based, human; conditions: 10-40 μg/mL, 48 h
Description: CCD 841 CoN cells were grown in black 96-well plates at an initial cell density of 2 × 10^4 cells/cm^2 for 24 h under standard culture conditions. The cells were treated with ST (2.5, 5, 10, 20, and 40 μg/mL) and its esters ST-OA and ST-LA (10, 20, and 40 μg/mL) for 48 h. DNA synthesis was measured by incorporating thymidine analog 5-bromo-2′-deoxyuridine (BrdU) into newly synthesized DNA using the Cell Proliferation ELISA kit according to the protocol recommended by the manufacturer (Roche Diagnostics GmbH, Mannheim, Germany). Briefly, BrdU was added to the treated cells 24 h before the end of the exposure to the ST, ST-OA, and ST-LA (final BrdU concentration of 10 μM). After treatment, BrdU-labeled DNA was denatured (30 min, 20 °C). Then, BrdU was bonded with a peroxidase-conjugated anti-BrdU antibody (90 min, 20 °C) and reacted with the peroxidase substrate. The absorbance measurement was done with a stop solution (1 M H2SO4) at 450 nm with reference wavelength 690 nm using a Tecan M200 Infinite microplate reader.

[5] = system: CCD 841 CoN cells; assay: Cell cycle analysis by flow cytometry (propidium iodide); format: cell-based, human; conditions: 40 μg/mL, 24 h
Description: CCD 841 CoN cells were grown in 6-well plates at an initial cell density of 2 × 10^4 cells/cm^2 for 24 h under standard culture conditions. The cells were treated for 24 h with the analyzed compounds at a concentration of 40 μg/mL; the high dose was applied because of the relatively low cytotoxic potential of ST-OA and ST-LA as determined in cytotoxicity studies. In addition, the cells were exposed to 0.05 μM camptothecin (Sigma-Aldrich) as a positive reference compound known to modulate cell cycle progression.
After treatment, the cells were harvested by trypsinization, washed in PBS, and fixed in 70% ethanol. Then, the cells were stained with 50 μg/mL propidium iodide in the presence of 100 μg/mL RNase (Sigma-Aldrich). The sample preparation method and staining protocol were described previously. The cycle phase distribution was analyzed with an Amnis™ FlowSight™ flow cytometer (Luminex Corporation, TX, USA).

[6] = system: CCD 841 CoN cells; assay: MultiTox-Fluor Multiplex Cytotoxicity Assay (live and dead cell fluorescence); format: cell-based; conditions: doses up to 40 μg/mL, 48 h
Description: The normal human diploid CCD 841 CoN cell line (ATCC® CRL-1790™) isolated from colon mucosa was obtained from American Type Culture Collection (ATCC, Manassas, VA, USA). Cells were cultured in Dulbecco’s Modified Eagle’s Medium (DMEM, Sigma-Aldrich) supplemented with fetal bovine serum (FBS; Gibco BRL, Grand Island, NY, USA) to a final concentration of 10% and maintained at 37 °C in a humidified atmosphere with 5% CO2.
In the cytotoxicity experiments, CCD 841 CoN cells were seeded in 96-well plates at an initial density of 2.0 × 10^4 cells/cm^2 and incubated for 24 h. […] Control culture contained the vehicle at the amount corresponding to the sample analyzed.
The Multitox-Fluor Multiplex Cytotoxicity Assay (Promega GmbH, Mannheim, Germany) was applied to determine the relative number of live and dead cells in the CCD 841 CoN cell cultures treated with the analyzed compounds. The assay determined live- and dead-cell protease activities using two fluorogenic peptide substrates, cell-permeant (glycyl-phenylalanyl-amino fluorocoumarin; GF-AFC) and cell-impermeant (bis-alanyl-alanyl-phenylalanyl-rhodamine 110; bis-AAF-R110). After treatment, the cells were incubated with GF-AFC and bis-AAF-R110 substrates for 60 min at 37 °C. The live- and dead-cell proteases produced AFC and R110 products, measured using a Tecan M200 Infinite microplate reader (Tecan Group Ltd., Männedorf, Switzerland) at different excitation (400 nm and 485 nm) and emission (505 nm and 520 nm) spectra. The assay was conducted according to the manufacturer’s instructions.

[7] = system: FHs 74 Int cells; parameters: method as in PMID 31883991; conditions: normal human small intestine cells; cited from earlier work
[8] = system: S. typhimurium TA98; assay: Bacterial reverse mutation assay (Ames test), strain TA98; conditions: for reversion of mutations in TA98: 40 μg/mL, presence and absence of the microsomal fraction
Description: (§1) Potential mutagenicity or pro-mutagenicity of non-heated and heated ST, ST-LA, and ST-OA was determined using the bacterial reverse mutation assay (Ames test) with Salmonella enterica subsp. enterica ser. typhimurium tester strains TA98, TA100, and TA102, which were obtained from the Polish Collection of Microorganisms of the Institute of Immunology and Experimental Therapy of the Polish Academy of Sciences in Wroclaw.
(§2) Mutagenicity experiments were performed in the liquid pre-incubation assay, without and with metabolic activation by supplying Aroclor 1254-induced rat liver microsomal fraction (S9, Sigma-Aldrich) with NADP and cofactors for NADPH-supported oxidation, according to the procedure described by Mortelmans and Zeiger[39]. Briefly, reaction mixtures, consisting of 12-h bacterial culture, non-heated and heated compound (ST, ST-LA, ST-OA) at a concentration of 40 μg, 0.2 M phosphate buffer (pH 7.4), and alternatively S9 activating mixture, were pre-incubated at 37 °C for 20 min. […] The mutagen, 2-aminoanthracene (5 μg) (Sigma-Aldrich), was a positive control in pro-mutagenicity experiments. After pre-incubation, the reaction mixtures were added to the top agar supplemented with traces of histidine and biotin and poured onto the plates covered with minimum glucose agar. The cultures were incubated for 48 h at 37 °C, and the number of revertants (His+) colonies was counted manually.
(§3) Compounds with MI ≥ 2 can be recognized as potentially mutagenic.

[9] = system: S. typhimurium TA100; conditions: for reversion of mutations in TA100: 40 μg/mL, presence and absence of the microsomal fraction; for Mutagenic index TA100: reference mutagen
Description: as §1, §2, §3

[10] = Thermo-oxidative treatment at 180 °C for 8 h, degradation of the compound; format: physicochemical; conditions: heated at 180 °C for 8 h under oxygen atmosphere
Description: ST, ST-OA, and ST-LA (50 mg each) were placed separately in glass vials and heated at 180 °C for 8 h under an oxygen atmosphere. After thermo-oxidative treatment, the tested compounds were stored at − 20 °C until chemical and biological analyses. The non-heated and heated ST and its esters were analyzed to detect degradation products and oxyderivatives. Analytical methods were described in the article published previously.

[11] = system: S. typhimurium TA102; assay: Bacterial reverse mutation assay (Ames test), strain TA102; conditions: for effect on TA102 revertants: 40 μg/mL, regardless of metabolic activation (+/− S9)
Description: as §1, §2, §3

[12] = with metabolic activation (+ S9), reference mutagen

SMILES | cytotoxic effects [2] | caspase 3/7 activity [3] | DNA synthesis inhibition [4] | subpopulation of dead cells with lower/reduced DNA content [5] | effect on colon cell viability / cytotoxicity [6] | cytotoxic effects [7] | reversion of mutations in TA98 [8] | reversion of mutations in TA100 [9] | Fatty acid residue depletion (%) [10] [%] | Sterol moiety depletion (%) [10] [%] | effect on TA102 revertants [11] | also measured
OO [H2O2, reference compound] | – | – | – | – | – | – | – | – | – | – | – | total comet score (TCS) [1]: 263.1 ± 29.4
CCCCC/C=C\C/C=C\CCCCCCCC(=O)OC1CCC2(C)C(=CCC3C2CCC2(C)C(C(C)/C=C/C(CC)C(C)C)CCC32)C1 (stereo not shown) [ST-LA, stigmasteryl linoleate] | no cytotoxic effects | slightly increased caspase-3/7 activities | not observed | Slight expanding the cell subpopulation with reduced DNA content | did not affect colon cell viability | no cytotoxic effects | did not induce the reversion of mutations | did not induce the reversion of mutations | 31.11 ± 3.2 | 71.6 ± 6.6 | did not affect the number of TA102 revertants | –
[N-]=[N+]=[N-].[Na+] [Sodium azide, sodium azide, reference compound] | – | – | – | – | – | – | – | – | – | – | – | Mutagenic index TA100 ([9]; without metabolic activation (− S9), dose printed with the label): 13.55; Mutagenic index TA100 ([9]; without metabolic activation (− S9), dose printed with the label, listed as sodium azide): 13.6
Nc1ccc2cc3ccccc3cc2c1 [2-Aminoanthracene, 2-aminoanthracene, reference compound] | – | – | – | – | – | – | – | – | – | – | – | Mutagenic index TA98 [8, 12]: 6.00; Mutagenic index TA100 ([9]; with metabolic activation (+ S9)): 2.03; Mutagenic index TA102 [11, 12]: 2.95
CCCCCCCC/C=C\CCCCCCCC(=O)OC1CCC2(C)C(=CCC3C2CCC2(C)C(C(C)/C=C/C(CC)C(C)C)CCC32)C1 (stereo not shown) [ST-OA, stigmasteryl oleate] | no cytotoxic effects | slightly increased caspase-3/7 activities | not observed | Slight expanding the cell subpopulation with reduced DNA content | did not affect colon cell viability | no cytotoxic effects | did not induce the reversion of mutations | did not induce the reversion of mutations | 77.14 ± 5.3 | 88.8 ± 3.5 | did not affect the number of TA102 revertants | –
